Assay results published in paper PMC7828111, “In Search for Multi-Target Ligands as Potential Agents for Diabetes Mellitus and Its Complications—A Structure-Activity Relationship Study on Inhibitors of Aldose Reductase and Protein Tyrosine Phosphatase 1B” (Molecules, 2021).

Legend:
[1] = target: T1, human recombinant AR (Homo sapiens, UniProt P15121); assay: Inhibition of human recombinant AR, L-idose as substrate (NADPH oxidation at 340 nm); format: biochemical; conditions: for IC50: human recombinant AR, 2 mM L-idose as substrate, mean ± S.E.M; for AR inhibitory potency relative to the corresponding acetic acid analogues 1, 2: less potent than acetic acid analogue, analogue data ref 5; for Inhibition of human AR (in words): at concentrations up to 10 μM
T1 construct: made in house; host or cells: E. coli BL21(DE3)pLysS
Method: The human recombinant AR was expressed in BL21(DE3)pLysS E. coli cells and purified to electrophoretic homogeneity as previously described. The purified enzyme (specific activity 5.0 U/mg) was stored at −80 °C in 10 mM sodium phosphate buffer pH 7.0 containing 2 mM dithiothreitol and 30% (w/v) glycerol. AR activity was determined at 37 °C as previously described evaluating the decrease in absorbance at 340 nm linked to NADPH oxidation. […] One unit of enzyme activity is the amount that catalyzes the conversion of 1 μmol of substrate/min in the above assay conditions.
All compounds tested as aldose reductase inhibitors were dissolved in DMSO and added to the assay mixture containing 8 mU of purified AR. The reaction was started by addition of the substrate. The DMSO concentration in all the assays was kept constant at 0.5% (v/v) in order to avoid effects on AR activity.
The IC50 values were determined by nonlinear regression analysis using Prism GraphPad 6.0 fitting experimental data to the following equation:(1) vi/v0= Max−Min/1+( I/IC50)^slope +Min
In the equation, vi/v0, represents the ratio between the activity measured in the presence of the inhibitor and the activity measured in the absence of inhibitor; Max and Min represent the expected maximal and minimal value of the activity and were fixed at 1 and zero, respectively. Slope, which describes the steepness of curve in the transition region, was fixed at −1. For each compound, at least five different concentrations of inhibitor in the triplicate assay were analyzed.

[2] = target: T2, human recombinant PTP1B (Homo sapiens, UniProt P18031); assay: Inhibition of human recombinant PTP1B, p-nitrophenyl phosphate as substrate; format: biochemical; conditions: for remaining activity at 50 µM: residual activity, read-out: PTP1B % enzyme residual activity at the indicated concentration; for remaining activity at 50 µM / IC50: pNPP as substrate; for IC50: human recombinant PTP1B, mean ± S.E.M
T2 sequence (P18031 1-435): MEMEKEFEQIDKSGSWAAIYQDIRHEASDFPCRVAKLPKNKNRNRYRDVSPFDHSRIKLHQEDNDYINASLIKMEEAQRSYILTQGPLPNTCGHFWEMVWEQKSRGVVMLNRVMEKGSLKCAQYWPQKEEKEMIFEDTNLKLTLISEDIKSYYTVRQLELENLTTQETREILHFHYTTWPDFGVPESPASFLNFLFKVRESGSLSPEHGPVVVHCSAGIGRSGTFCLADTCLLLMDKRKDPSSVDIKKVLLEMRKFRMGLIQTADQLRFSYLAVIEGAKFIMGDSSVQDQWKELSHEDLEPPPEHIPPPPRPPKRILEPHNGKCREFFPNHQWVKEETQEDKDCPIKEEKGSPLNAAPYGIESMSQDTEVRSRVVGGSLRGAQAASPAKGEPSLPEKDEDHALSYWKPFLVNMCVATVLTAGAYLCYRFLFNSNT
Method: PTP1B activity was determined as follow. […] After an appropriate interval time, the reaction was stopped diluting assay solution with 2 mL of KOH 0.1 M. The amount of p-nitrophenol released was determined measuring the absorbance of the solution at 400 nm using a spectrophotometer and a 1-cm optical pathlength (εmM of p-nitrophenol is 18). The IC50 value was determined measuring the pNPP hydrolysis rate in the presence of increasing inhibitor concentration. For each inhibitor, 15–16 different concentrations were used. All tests were carried out in triplicate and data obtained were normalized respect to control sample.

[3] = target: T1, human recombinant AR; assay: Kinetic analysis of AR inhibition (Lineweaver-Burk and secondary plots); format: biochemical
Method: The kinetic analysis of compounds 4a, 4e and 4f was performed by measuring reaction rates with different L-idose concentrations s (S) in the absence and in the presence of different inhibitors concentrations. Data were analyzed by Linewever-Burk plots.

[4] = target: T2, human recombinant PTP1B; assay: Kinetic analysis of PTP1B inhibition (Lineweaver-Burk plot); format: biochemical; conditions: pNPP as substrate
Method: Kinetic analyses were carried out to dissect action mechanism of compound 4e and 4f. Briefly, the main kinetic parameters, Km and Vmax, were calculated measuring the initial hydrolysis rate of PTP1B in the presence of increasing pNPP concentration (seven different concentrations in the 0.5–25 mM range). All assays were carried out in duplicate. Data obtained were fitted using the Michaelis-Menten equation. To evaluate the action mechanism of inhibitors, we studied the dependence of Km and Vmax from inhibitors concentration, using three different inhibitor concentrations, at least. Data obtained were then analysed by double reciprocal plot (Lineweaver-Burk plot).

[5] = target: T1, human recombinant AR; assay: Reversibility of AR inhibition (dialysis); format: biochemical
Method: In order to evaluate the reversibility of the inhibitory action, 8 mU of purified AR were assayed in the presence of 5 μM of compounds 4a, 4e and 4f. In these conditions less than 15% of the enzyme activity was measured in the presence of 2 mM L-idose as substrate. The mixture was then extensively dialysed on Amicon ultrafiltration membrane (cut off 10 KDa) against 10 mM sodium phosphate buffer, pH 7.0. After dialysis, the enzyme activity was again measured as above and compared to that of a mixture in the absence of inhibitor and treated in the same conditions.

[6] = target: T2, human recombinant PTP1B; assay: Reversibility assay (dilution test) with PTP1B; format: biochemical; conditions: saturating inhibitor, 60 min 37 °C, diluted 400 folds
Method: An aliquot of the enzyme was incubated for 60 min at 37 °C in the presence of saturating amount of PTP1B inhibitor. After this time, an aliquot of the enzyme was withdrawn and diluted 400 folds in the assay buffer containing 2.5 mM of pNPP. After 15 min, the reaction was stopped by adding 1 mL of KOH 0.2 M. The amount of pNP released was calculating measuring the absorbance at 400 nm of solutions using a spectrophotometer. Data obtained were normalized respect to control tests, which was carried out diluting the enzyme with DMSO, the solvent used to dissolve all compounds. Data reported in the figure represent the mean value +/− S.E.M. (n = 3).

[7] = tested on: bovine lens AR; set-up: method as in PMID 15781392; conditions: glyceraldehyde as substrate; cited from earlier work
[8] = residual activity, L-idose as substrate, read-out: AR % enzyme residual activity at the indicated concentration

Row | SMILES | IC50 [1] | remaining activity at 50 µM [2] | melting point | IC50 [2] | also measured
1 | O=C(O)CCN1C(=O)S/C(=C\c2cccc(Oc3ccccc3)c2)C1=O [3a, 3-{(5Z)-[2,4-Dioxo-5-(3-phenoxyphenyl)methylidene]thiazolidin-3-yl}propanoic acid] | 11.9 ± 0.9 µM | 79% | 177 to 180 °C | – | –
2 | O=C(O)CCN1C(=O)S/C(=C\c2ccc(Oc3ccccc3)cc2)C1=O [3b, 3-{(5Z)-[2,4-Dioxo-5-(4-phenoxyphenyl)methylidene]thiazolidin-3-yl}propanoic acid] | 43.8 ± 7.1 µM | 56% | 198 to 202 °C | – | –
3 | O=C(O)CCN1C(=O)S/C(=C\c2cccc(OCc3ccccc3)c2)C1=O [3c, 3-{(5Z)-[5-(3-Benzyloxyphenyl)methylidene]-2,4-dioxothiazolidin-3-yl}propanoic acid] | 14.3 ± 1 µM | 76% | 142 to 145 °C | – | –
4 | O=C(O)CCN1C(=O)S/C(=C\c2ccc(OCc3ccccc3)cc2)C1=O [3d, 3-{(5Z)-[5-(4-Benzyloxyphenyl)methylidene]-2,4-dioxothiazolidin-3-yl}propanoic acid] | 35.7 ± 3 µM | 77% | 195 to 199 °C | – | Inhibition of human PTP1B by virtual screening hit (in words) ([2]; in vitro evaluation of selected virtual hits, previously conducted): moderate capability to inhibit
5 | O=C(O)CCN1C(=O)S/C(=C\c2cccc(OCCc3ccccc3)c2)C1=O [3e, 3-[(5Z)-2,4-Dioxo-{5-[3-(2-phenylethoxy)phenyl]methylidene}thiazolidin-3-yl]propanoic acid] | 27.9 ± 3.1 µM | 64% | 130 to 133 °C | – | AR inhibitory potency relative to the corresponding acetic acid analogues 1, 2 [1]: two orders of magnitude higher
6 | O=C(O)CCN1C(=O)S/C(=C\c2ccc(OCCc3ccccc3)cc2)C1=O [3f, 3-[(5Z)-2,4-Dioxo-{5-[4-(2-phenylethoxy)phenyl]methylidene}thiazolidin-3-yl]propanoic acid] | 50.2 ± 4.6 µM | 46% | 160 to 163 °C | – | AR inhibitory potency relative to the corresponding acetic acid analogues 1, 2 [1]: two orders of magnitude higher
7 | O=C(O)CCN1C(=O)/C(=C/c2cccc(Oc3ccccc3)c2)SC1=S [4a, 3-{(5Z)[4-Oxo-5-(3-phenoxyphenyl)methylidene-2-thioxothiazolidin-3-yl]}propanoic acid] | 2.2 ± 0.1 µM | – | – | 34.1 ± 0.5 µM | AR Ki relative to K′i ([3]; Ki higher than K′i): approximately 4 fold; AR K′i (apparent dissociation constant, EIS complex) ([3]; L-idose as substrate): 1.4 ± 0.022 µM; Mechanism of AR inhibition ([3]; L-idose as substrate): mixed-type inhibition; Ki ([3]; L-idose as substrate, read-out: AR Ki (apparent dissociation constant)): 5 ± 0.57 µM; Mechanism of PTP1B inhibition [4]: mixed-type non-competitive inhibitors; PTP1B K′i (apparent dissociation constant, EIS complex) [4]: 68.9 ± 1.5 µM; Ki ([4]; read-out: PTP1B Ki (apparent dissociation constant)): 10.6 ± 1.7 µM; AR enzyme activity recovered after removal of the inhibitor upon extensive dialysis ([5]; 5 μM compound before dialysis): more than 90%; AR enzyme activity measured in the presence of compound ([5]; 5 μM compound, 2 mM L-idose, before dialysis): less than 15%; Reversibility of PTP1B inhibition [6]: reversible inhibitors
8 | O=C(O)CCN1C(=O)/C(=C/c2ccc(Oc3ccccc3)cc2)SC1=S [4b, 3-{(5Z)[4-Oxo-5-(4-phenoxyphenyl)methylidene-2-thioxothiazolidin-3-yl]}propanoic acid] | 7.6 ± 0.6 µM | – | 218 to 219 °C | 29.5 ± 0.4 µM | –
9 | O=C(O)CCN1C(=O)/C(=C/c2cccc(OCc3ccccc3)c2)SC1=S [4c, 3-{(5Z)-5-[(3-Benzyloxyphenyl)methylidene]-4-oxo-2-thioxothiazolidin-3-yl}propanoic acid] | 3.8 ± 0.1 µM | – | – | 42.8 ± 0.7 µM | –
10 | O=C(O)CCN1C(=O)/C(=C/c2ccc(OCc3ccccc3)cc2)SC1=S [4d, 3-{(5Z)-5-[(4-Benzyloxyphenyl)methylidene]-4-oxo-2-thioxothiazolidin-3-yl}propanoic acid] | 8.4 ± 0.7 µM | – | 170 to 173 °C | 34.9 ± 0.7 µM | –
11 | O=C(O)C=CCN1C(=O)SC(=Cc2cccc(Oc3ccccc3)c2)C1=O [5a] | 3.9 ± 0.2 µM | – | – | 42.1 ± 0.3 µM | Inhibitory activity towards bovine lens AR [7]: very scarce inhibitory activity
12 | O=C(O)C=CCN1C(=O)SC(=Cc2ccc(Oc3ccccc3)cc2)C1=O [5b] | – | – | – | 39.7 ± 0.1 µM | remaining activity at 10 µM [1, 8]: 84%; Inhibition of human AR (in words) ([1]; L-idose as substrate): scarce inhibition; Inhibitory activity towards bovine lens AR [7]: almost inactive
13 | O=C(O)C=CCN1C(=O)SC(=Cc2ccc(-c3ccccc3)cc2)C1=O [5c] | – | – | – | 34.8 ± 0.5 µM | remaining activity at 5 µM ([1]; at 5 µM, residual activity, L-idose as substrate, read-out: AR % enzyme residual activity at the indicated concentration): 88%; Inhibition of human AR (in words) ([1]; L-idose as substrate): scarce inhibition; Inhibitory activity towards bovine lens AR [7]: almost inactive
14 | O=C(O)C=CCN1C(=O)SC(=Cc2cccc3ccccc23)C1=O [5d, 4-{(5Z)-[5-(1-Naphtylmethylidene)-2,4-dioxothiazolidin-3-yl]}-2-butenoic acid] | 3.7 ± 0.2 µM | – | 170 to 172 °C | 40.3 ± 0.5 µM | –
15 | O=C(O)C=CCN1C(=O)SC(=Cc2ccc3ccccc3c2)C1=O [5e, 4-{(5Z)-[5-(2-Naphtylmethylidene)-2,4-dioxothiazolidin-3-yl]}-2-butenoic acid] | – | – | 235 to 238 °C | 37.1 ± 0.4 µM | remaining activity at 10 µM [1, 8]: 86%; Inhibition of human AR (in words) ([1]; L-idose as substrate): scarce inhibition
